The term EC50 denotes the concentration giving half of the maximal effect. The low end stands for higher potency in that assay, the high end for lower potency in that assay.

The test addresses T1, LXRβ (Homo sapiens, UniProt P55055).
T1 construct: Co-transfection expression plasmids, comprising full-length LXRα (pCMX-h LXRα[…] or LXRβ (pCMX-hLXRβ)); expressed in transfected cells; host or cells: CV-1 African Green Monkey Kidney Cells
T1 sequence (P55055 1-460): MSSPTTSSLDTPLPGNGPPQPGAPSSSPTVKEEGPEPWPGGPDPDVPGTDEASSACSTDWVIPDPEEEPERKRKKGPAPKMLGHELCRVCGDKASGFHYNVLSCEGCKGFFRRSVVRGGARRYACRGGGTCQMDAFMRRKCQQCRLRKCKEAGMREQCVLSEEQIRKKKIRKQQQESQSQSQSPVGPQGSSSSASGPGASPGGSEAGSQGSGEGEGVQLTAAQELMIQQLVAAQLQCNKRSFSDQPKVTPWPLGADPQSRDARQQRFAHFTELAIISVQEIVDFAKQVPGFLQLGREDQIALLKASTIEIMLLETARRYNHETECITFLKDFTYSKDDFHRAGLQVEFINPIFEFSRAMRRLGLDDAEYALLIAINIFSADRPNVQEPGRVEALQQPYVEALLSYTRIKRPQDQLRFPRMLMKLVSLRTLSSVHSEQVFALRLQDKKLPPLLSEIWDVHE
T1 sequence (P19793 1-462 partner): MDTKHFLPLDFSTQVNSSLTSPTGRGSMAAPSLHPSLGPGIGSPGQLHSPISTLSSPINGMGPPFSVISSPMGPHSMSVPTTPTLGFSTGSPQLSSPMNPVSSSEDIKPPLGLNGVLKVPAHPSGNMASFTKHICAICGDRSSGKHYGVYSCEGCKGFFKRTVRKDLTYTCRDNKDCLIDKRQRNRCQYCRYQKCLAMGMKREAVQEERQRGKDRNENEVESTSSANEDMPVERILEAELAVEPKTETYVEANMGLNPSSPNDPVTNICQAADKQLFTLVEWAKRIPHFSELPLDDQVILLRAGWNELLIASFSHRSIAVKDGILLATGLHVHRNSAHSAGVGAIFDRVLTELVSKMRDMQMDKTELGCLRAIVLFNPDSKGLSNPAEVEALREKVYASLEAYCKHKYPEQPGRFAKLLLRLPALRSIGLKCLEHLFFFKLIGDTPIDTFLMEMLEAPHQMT
In words: Co-transfection assay (LXRE luciferase reporter), LXRβ. It counts as cell-based. The conditions noted are these: for EC50: CV-1 cells transfected with pCMX-hLXRβ and LXREx1-Tk-Luciferase, 20 hours incubation; for Emax: LXRβ co-transfection, relative to high control 1-(2,4-difluorobenzyl)-2-oxo-6-(4-phenoxyphenyl)-4-(trifluoromethyl)-1,2-dihydropyridine-3-carbonitrile, read-out: % Efficacy. The gist of the method: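 CV-1 / pCMX-hLXRβ + LXREx1-Tk-Luc + β-gal; cpd 20 h, 37 °C, ≤0.5% DMSO; Steady-Glo luminescence. 11-pt ½-log curves, duplicate wells, sigmoidal fit → EC50; % efficacy vs high-control agonist, DMSO low control; mean of ≥2 expts.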

Turning to `Cc1nc(C(F)(F)F)cn1-c1ccc(-c2cccc(S(C)(=O)=O)c2)cc1-n1nncc1-c1ccc(OC(F)(F)F)c(F)c1` [Example 54, 5-{3-fluoro-4-[(trifluoromethyl)oxy]phenyl)-1-{3′-(methylsulfonyl)-4-[2-methyl-4-(trifluoromethyl)-1H-imidazol-1-yl]biphenyl-3-yl}-1H-1,2,3-triazole], a half-maximal response (EC50) required 148 nM and the Emax is 84%.
The like results for `Cc1nc(C2CC2)cn1-c1ccc(-c2cccc(S(C)(=O)=O)c2)cc1-n1nncc1-c1ccc(Cl)cc1` [Example 228, 5-(4-chlorophenyl)-1-(4-(4-cyclopropyl-2-methyl-1H-imidazol-1-yl)-3′-(methylsulfonyl)-[1,1′-biphenyl]-3-yl)-1H-1,2,3-triazole] were, in that order, 2560 nM and 67%.
On to `Cc1nc(-c2cc(-c3cccc(S(C)(=O)=O)c3)ccc2-n2cc(C(F)(F)F)nc2C)c(-c2ccc(F)c(OC(F)F)c2)o1` [Example 460, 5-(3-(difluoromethoxy)-4-fluorophenyl)-2-methyl-4-(4-(2-methyl-4-(trifluoromethyl)-1H-imidazol-1-yl)-3′-(methylsulfonyl)biphenyl-3-yl)oxazole], for which the EC50 came out at 550 nM and the Emax came to 64%.
For `Cc1nc(C(F)(F)F)c(Cl)n1-c1ccc(-c2cccc(S(C)(=O)=O)c2)cc1-n1nncc1-c1ccc(OC(F)(F)F)cc1` [Example 55, 1-{4-[5-chloro-2-methyl-4-(trifluoromethyl)-1H-imidazol-1-yl]-3′-(methylsulfonyl)biphenyl-3-yl}-5-{4-[(trifluoromethyl)oxy]phenyl}-1H-1,2,3-triazole], in that order: 180 nM and 110%.
`Cc1nc(C(F)(F)F)cn1-c1ccc(-c2cccc(S(C)(=O)=O)c2)cc1-c1oc(CCN2CCCC2)nc1-c1ccc(OC(F)(F)F)cc1` [Example 620, 5-(4-(2-methyl-4-(trifluoromethyl)-1H-imidazol-1-yl)-3′-(methylsulfonyl)-[1,1′-biphenyl]-3-yl)-2-(2-(pyrrolidin-1-yl)ethyl)-4-(4-(trifluoromethoxy)phenyl)oxazole]: the EC50 amounted to 202 nM and the Emax was 94%.
For the compound `COc1ccc(-c2cnnn2-c2cc(-c3cccc(S(C)(=O)=O)c3)ccc2-n2cc(C(F)(F)F)nc2C)cc1` [Example 26, 5-[4-(methyloxy)phenyl]-1-{3′-(methylsulfonyl)-4-[2-methyl-4-(trifluoromethyl)-1H-imidazol-1-yl]biphenyl-3-yl}-1H-1,2,3-triazole], it took 541 nM to reach a half-maximal effect (EC50) and the Emax came to 93%.
For `Cc1nc(C(F)(F)F)c(Cl)n1-c1ccc(-c2cc(F)c(CO)c(S(C)(=O)=O)c2)cc1-c1cnnn1-c1ccc(Cl)cc1` [Example 240, {4′-[5-chloro-2-methyl-4-(trifluoromethyl)-1H-imidazol-1-yl]-3′-[1-(4-chlorophenyl)-1H-1,2,3-triazol-5-yl]-3-fluoro-5-(methylsulfonyl)biphenyl-4-yl}methanol], the EC50 was 142 nM and the Emax was 129%.
The like results for `Cc1nc(C(F)(F)F)cn1-c1ccc(-c2cccc(S(C)(=O)=O)c2)cc1-n1nncc1CC1CCC(C)CC1` (centres unmarked) [Example 127, 5-[(4-methylcyclohexyl)methyl]-1-{3′-(methylsulfonyl)-4-[2-methyl-4-(trifluoromethyl)-1H-imidazol-1-yl]biphenyl-3-yl}-1H-1,2,3-triazole] were, in that order, 776 nM and 55%.
For `COc1ncc(-c2oc(C)nc2-c2cc(-c3cccc(S(C)(=O)=O)c3)ccc2-n2cc(C(F)(F)F)nc2C)cn1` [Example 414, 5-(2-methoxypyrimidin-5-yl)-2-methyl-4-(4-(2-methyl-4-(trifluoromethyl)-1H-imidazol-1-yl)-3′-(methylsulfonyl)biphenyl-3-yl)oxazole], the EC50 came to 657 nM and the Emax came out at 70%.
Consider `Cc1nc(C(F)(F)F)cn1-c1ccc(-c2cc(F)c(CO)c(S(C)(=O)=O)c2)cc1-n1nncc1-c1ccc(Cl)c(Cl)c1` [Example 81, {3′-[5-(3,4-dichlorophenyl)-1H-1,2,3-triazol-1-yl]-3-fluoro-5-(methylsulfonyl)-4′-[2-methyl-4-(trifluoromethyl)-1H-imidazol-1-yl]biphenyl-4-yl}methanol], for which the EC50 was determined as 85 nM and the Emax came to 99%.
For the compound `Cc1nc(C(F)(F)F)cn1-c1cc(F)c(-c2cccc(S(C)(=O)=O)c2)cc1-n1nncc1-c1ccc(Cl)cc1` [Example 100, 5-(4-chlorophenyl)-1-{6-fluoro-3′-(methylsulfonyl)-4-[2-methyl-4-(trifluoromethyl)-1H-imidazol-1-yl]biphenyl-3-yl}-1H-1,2,3-triazole], a half-maximal effect (EC50) was put at 1110 nM and the Emax was 97%.
For `Cc1nc(C(F)(F)F)cn1-c1ccc(-c2cccc(S(C)(=O)=O)c2)cc1-c1cnnn1-c1ccc(OC(F)(F)F)cc1` [Example 242, 5-{3′-(methylsulfonyl)-4-[2-methyl-4-(trifluoromethyl)-1H-imidazol-1-yl]biphenyl-3-yl}-1-{4-[(trifluoromethyl)oxy]phenyl}-1H-1,2,3-triazole], a half-maximal response (EC50) required 201 nM and the Emax worked out at 105%.
For `Cc1nc(C(F)(F)F)cn1-c1ccc(-c2cc(F)c(CO)c(S(C)(=O)=O)c2)cc1-n1nncc1-c1ccc2occc2c1` [Example 216, (3′-(5-(benzofuran-5-yl)-1H-1,2,3-triazol-1-yl)-3-fluoro-4′-(2-methyl-4-(trifluoromethyl)-1H-imidazol-1-yl)-5-(methylsulfonyl)-[1,1′-biphenyl]-4-yl)methanol], in that order: 286 nM and 91%.
Turning to `Cc1nc(-c2cc(-c3cccc(S(C)(=O)=O)c3)ccc2-n2cc(C(F)(F)F)nc2C)c(-c2ccc(OC(F)F)c(OC3CC3)c2)o1` [Example 386, 5-(3-cyclopropoxy-4-(difluoromethoxy)phenyl)-2-methyl-4-(4-(2-methyl-4-(trifluoromethyl)-1H-imidazol-1-yl)-3′-(methylsulfonyl)biphenyl-3-yl)oxazole], a half-maximal effect (EC50) was put at 73 nM and the Emax stood at 64%.
For `Cc1nc(C(C)(F)F)cn1-c1ccc(-c2cccc(S(C)(=O)=O)c2)cc1-n1nncc1-c1ccc(Cl)cc1` [Example 176, 5-(4-chlorophenyl)-1-{4-[4-(1,1-difluoroethyl)-2-methyl-1H-imidazol-1-yl]-3′-(methylsulfonyl)biphenyl-3-yl}-1H-1,2,3-triazole], in that order: 792 nM and 68%.
Consider `Cc1nc(C(F)(F)F)cn1-c1ccc(-c2cc(F)c(CO)c(S(C)(=O)=O)c2)cc1-n1nncc1C(=O)c1ccc(Cl)cc1` [Example 140, (4-chlorophenyl)(1-{3′-fluoro-4′-(hydroxymethyl)-5′-(methylsulfonyl)-4-[2-methyl-4-(trifluoromethyl)-1H-imidazol-1-yl]biphenyl-3-yl}-1H-1,2,3-triazol-5-yl)methanone], for which the EC50 is 383 nM and the Emax was found to be 64%.
As for `Cc1nc(C(F)(F)F)cn1-c1c(F)cc(-c2cc(F)c(CO)c(S(C)(=O)=O)c2)cc1-n1nncc1-c1ccc(Cl)cc1` [Example 198, {3′-[5-(4-chlorophenyl)-1H-1,2,3-triazol-1-yl]-3,5′-difluoro-5-(methylsulfonyl)-4′-[2-methyl-4-(trifluoromethyl)-1H-imidazol-1-yl]biphenyl-4-yl}methanol], the EC50 stood at 92 nM and the Emax is 87%.
For `Cc1nc(C(N)=O)cn1-c1ccc(-c2cccc(S(C)(=O)=O)c2)cc1-c1nc(C2CC2)oc1-c1ccc2c(c1)OC(F)(F)O2` [Example 489, 1-(3-(2-cyclopropyl-5-(2,2-difluorobenzo[d][1,3]dioxol-5-yl)oxazol-4-yl)-3′-(methylsulfonyl)biphenyl-4-yl)-2-methyl-1H-imidazole-4-carboxamide], it took 1080 nM to reach a half-maximal effect (EC50) and the Emax stood at 35%.
In the case of `Cc1nc(-c2cc(-c3cccc(S(C)(=O)=O)c3)ccc2-n2cc(C(F)(F)F)nc2C)c(-c2ccc(N3CCCC3=O)cc2)o1` [Example 502, 1-(4-(2-methyl-4-(4-(2-methyl-4-(trifluoromethyl)-1H-imidazol-1-yl)-3′-(methylsulfonyl)biphenyl-3-yl)oxazol-5-yl)phenyl)pyrrolidin-2-one], the response was half-maximal at 1250 nM (EC50) and the Emax came out at 37%.
